This passage reports Km results from US20240167005A1, “MODIFIED SHIGELLA APYRASE AND USES THEREOF” (APIRAYS BIOSCIENCES AB, priority 2021, published 2024).

As usually defined, the Km is the concentration of substrate that gives half-maximal velocity.

Assay [1] concerns EIEC apyrase variant H116L. In words: Affinity of ATP to EIEC H116L (Table 6). Format: biochemical. From the text: (§1) Respective colorimetric/fluorescence assays (mentioned above).
Assay [2] addresses Shigella flexneri apyrase (ApiOne, SEQ ID NO: 1) Double mutant L66V/G63R (Shigella flexneri, UniProt Q59909, G63R/L66V). The note with it: read-out: Affinity (Km), ATP, 50 mM Tris-HCl pH 7.5, 37° C., 20 min, 500 ng enzyme.
Description: To this 200 μL of Ammonium Molybdate Ferrous Ammonium Sulphate (AMFAS) reagent was added. AMFAS reagent was prepared by mixing equal volumes of reagent A and reagent B, where reagent A comprises of 5% (w/v) ammonium molybdate in 5 N H2SO4 and reagent B contains 1% (w/v) ferrous ammonium sulphate in double-distilled water. The amount of inorganic phosphate formed (product of ATP/ADP hydrolysis) is colorimetrically measured at 630 nm using multi-mode spectrophotometer (Biotek instruments).
The kinetic curves were plotted and the Michaelis Menten constant (Km) was calculated using GraphPad Prism 5.0 software.
For assay [3], the target named is T1, wild-type Shigella flexneri apyrase, SEQ ID NO: 1 (Shigella flexneri, UniProt Q59909).
T1 sequence (Q59909 26-246): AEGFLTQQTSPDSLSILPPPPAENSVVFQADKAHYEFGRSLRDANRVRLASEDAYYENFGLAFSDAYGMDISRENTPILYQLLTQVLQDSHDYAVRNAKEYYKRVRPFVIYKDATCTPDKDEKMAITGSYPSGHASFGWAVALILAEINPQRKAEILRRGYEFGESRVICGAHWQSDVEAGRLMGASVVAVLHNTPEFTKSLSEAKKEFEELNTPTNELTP
In words: ATP hydrolysis, Km for ATP (Example 2), wild type. The format is biochemical. The note with it: 50 mM Tris, pH 7.5, 37° C., 30 min, 700 ng enzyme. The protocol:
A titrated series of ATP solutions from 100 mM to 0.01 mM in 50 mM Tris, pH 7.5 were prepared and incubated with 700 ng of Apyrase (mutant prepared in Example 1 and wild-type Shigella flexneri apyrase as control) for 30 minutes at 37° C. (100 μL reaction). After the incubation, 100 μL AMFAS reagent was added and OD was taken at 630 nm using multimode reader (Biotek instruments). The color formation is proportional to the amount of ATP degraded (dephosphorylated to ADP or AMP). […] Specific activity at 10 mM ATP was determined as 6.3 μmoles/min/mg for the mutant apyrase.

The target of assay [4] is Shigella flexneri apyrase, mutant apyrase of Example 1, SEQ ID NO: 3 (S50N, F54V, G63R, L66V, N70Q, E77V, A791, D90T, S97T, L108M, Q113N, V120R, K124R, Y127Q, P (Shigella flexneri, UniProt Q59909, A167G/A79I/D90T/E243D/E77V/F162N/F223W/F234Y/F53V/G185A/G206R/G63R/I151L/K124R/K178R/L108M/L182F/L227S/L66V/N174Q/N219K/N70Q/P143R/Q113N/S50N/S97T/T239Q/V120R/V213A/W199Y/Y127Q)). In words: ATP hydrolysis, Km for ATP (Example 2), mutant. Format: biochemical. The note with it: mutant of Example 1; 50 mM Tris, pH 7.5, 37° C., 30 min, 700 ng enzyme. On the procedure: In order to improve the activity of apyrase and its tolerance to high salt conditions, the inventors mutated the apyrase gene randomly using an error prone PCR method starting from the wild-type Shigella flexneri apyrase DNA sequence (SEQ ID NO: 4) as template. The method incorporates repeated copying of the template at high MgCl2 concentration (5 mM) with Taq polymerase. After every fourth cycle, one fifth of the reaction mixture was transferred to fresh PCR tube and the same process was repeated 22 times to obtain a product that will have randomly mutated nucleotides which can be identified by sequencing. The mutated gene was cloned in pET21a vector. The mutated DNA sequence obtained is presented as SEQ ID NO: 2, containing a total of 31 mutations leading to amino-acid changes (see SEQ ID NO:3 compared to the wild-type amino-acid sequence of SEQ ID NO: 1).
A titrated series of ATP solutions from 100 mM to 0.01 mM in 50 mM Tris, pH 7.5 were prepared and incubated with 700 ng of Apyrase (mutant prepared in Example 1 and wild-type Shigella flexneri apyrase as control) for 30 minutes at 37° C. (100 μL reaction). After the incubation, 100 μL AMFAS reagent was added and OD was taken at 630 nm using multimode reader (Biotek instruments). […] Specific activity at 10 mM ATP was determined as 6.3 μmoles/min/mg for the mutant apyrase.

In assay [5] the target is Shigella flexneri apyrase (ApiOne, SEQ ID NO: 1) ApiTwo mutant L66V (Shigella flexneri, UniProt Q59909, L66V). Put plainly: Affinity towards ATP, L66V. Format: biochemical. The note with it: 50 mM Tris-HCl pH 7.5, 37° C., 20 min, 500 ng enzyme.
Description: However, not all reactions successfully generated PCR products by agarose gel electrophoresis. The successful mutations were transformed into the expression host and proteins were expressed and purified to homogeneity by affinity chromatography.
Other substrates like 2-Glycerophosphate, Pyridoxal phosphate and phenyl phosphate were not hydrolysed by the mutants (Table 2 and FIG. 8A-B).
as §1

The structures appear in SMILES notation.

Regarding `Nc1ncnc2c1ncn2[C@@H]1O[C@H](COP(=O)(O)OP(=O)(O)OP(=O)(O)O)[C@@H](O)[C@H]1O` [ATP, Adenosine triphosphate], the Km in assay [1] came to 24 µM; in assay [2], 20.7 µM; in assay [3], 3300 µM; in assay [4], 3600 µM; in assay [5], 18.5 µM.
